How the values were obtained:
[1] = Evaluation of solubility in organic solvent (Test Example 2); type: physicochemical; conditions: 0.1-0.7 mol added to 1000 ml solvent, sealed, stood 24 hours, visual observation
Experimental: For the strontium complex compounds of Examples 1 to 3 and Comparative Examples 2 to 8, the solubilities of the complex compounds in ethyl cyclohexane, diethyl glycol dimethyl ether and toluene were evaluated. The evaluation was performed by adding 0.1-0.7 mol of each of the strontium complex compounds to 1000 ml of each of the organic solvents, sealing the mixtures, allowing the mixtures to stand for 24 hours, and visually observing whether a solid occurred in the mixtures. […] In Table 3, the case in which the complex compound was dissolved at a concentration of less than 0.1 mol was indicated as “x”.

[2] = Thermal stability by TGA (Test Example 3); type: physicochemical; conditions: dry argon 100 ml/min, heating rate 10° C./min, sample 7-12 mg
Experimental: (§1) The strontium complex compounds of Examples 1 to 3 and Comparative Examples 5 to 8 were measured for thermal stability by TGA and DSC. The TGA measurement was carried out under the following conditions: dry argon flow rate: 100 ml/min; heating rate: 10° C./min; and a sample amount of 7-12 mg. The DSC measurement was carried out by injecting a sample into a closed metal container in a glove box in a dry argon atmosphere and heating the sample container at a rate of 10° C./min, in which the amount of the sample was 1-4 mg. In the TGA measurement, sampling and measurement were carried out in the glove box in the dry argon atmosphere.

[3] = Thermal stability by DSC (Test Example 3); type: physicochemical; conditions: closed metal container, dry argon, heating rate 10° C./min, sample 1-4 mg
Experimental: as §1

[4] = Purification by distillation under reduced pressure (thermal stability); type: physicochemical; conditions: distillation at 30-50 Pa and 200-220° C.
Experimental: Strontium complex compounds of Comparative Examples 1 to 8 were prepared using the β-ketoimine ligands, obtained in Synthesis Examples 4 to 11, in the same manner as Example 1. Purification of the strontium complex compounds of Comparative Examples 3, 4, 5, 6 and 8, which could be distilled, was carried out at a pressure of 30-50 Pa and a temperature of 200˜220° C. […] The strontium complex compounds of Comparative Examples 1 to 8 were analyzed in the same manner as Examples 1 to 3, thereby determining the chemical structures thereof.

Structure (SMILES) | concentration of the strontium complex compound in the transparent liquid in which no solid was present, Diethylene glycol dimethyl ether [1] | concentration of the strontium complex compound in the transparent liquid in which no solid was present, Ethyl cyclohexane [1] | concentration of the strontium complex compound in the transparent liquid in which no solid was present, Toluene [1] | Remaining amount (wt % at 400 ° C.) [2] | Decomposition peak top temperature (° C.) [3] | thermal stability (could not be purified by distillation) [4] | melting point
CCOCC(C)(C)C(=O)C=C(C(C)C)[N]([Sr][N](C(=CC(=O)C(C)(C)COCC)C(C)C)C(C)CN(C)C)C(C)CN(C)C (stereo not drawn) [Example 2] | 0.7 mol | 0.6 mol | 0.7 mol | 1.40 wt % | 360.7 °C |  | 
CCC(C)C(=CC(=O)C(C)(C)COC)[N]([Sr][N](C(=CC(=O)C(C)(C)COC)C(C)CC)C(C)CN(C)C)C(C)CN(C)C (stereo not drawn) [Example 3] | 0.7 mol | 0.7 mol | 0.7 mol | 0.87 wt % | 393.2 °C |  | 
CC(C)C1=[N+](C(C)CN(C)C)[Sr-2]2([O]C(C(C)(C)C)=C1)[O]C(C(C)(C)C)=CC(C(C)C)=[N+]2C(C)CN(C)C (stereo not drawn) [Comparative Example 4] | 0.4 mol | 0.3 mol | 0.7 mol |  |  |  | 
COCC[N+]1=C(C)C=C(C(C)(C)C)[O][Sr-2]12[O]C(C(C)(C)C)=CC(C)=[N+]2CCOC [Comparative Example 1] |  |  |  |  |  | low thermal stability | 
COCC(C)[N+]1=C(C(C)C)C=C(C(C)(C)COC)[O][Sr-2]12[O]C(C(C)(C)COC)=CC(C(C)C)=[N+]2C(C)COC (stereo not drawn) [Comparative Example 6] | 0.4 mol | 0.5 mol | 0.4 mol | 3.7 wt % | 363.0 °C |  | 
COCC(C)(C)C1=[O+][Sr-4]234([O+]=C(C(C)(C)COC)C=C(C(C)C)[N]2C(C)C[N+]3(C)C)[N](C(C(C)C)=C1)C(C)C[N+]4(C)C (stereo not drawn) [Example 1] | 0.7 mol | 0.7 mol | 0.7 mol | 0.61 wt % | 382.4 °C |  | 140 to 141 °C
COCCC(C)(C)C1=CC(C(C)C)=[N+](C(C)CN(C)C)[Sr-2]2([O]1)[O]C(C(C)(C)CCOC)=CC(C(C)C)=[N+]2C(C)CN(C)C (stereo not drawn) [Comparative Example 8] | X (the case in which the complex compound was dissolved at a concentration of less than 0.1 mol was indicated as “x”) | X (the case in which the complex compound was dissolved at a concentration of less than 0.1 mol was indicated as “x”) | 0.1 mol | 3.97 wt % | 368.2 °C |  | 
COCC(C)(C)C1=CC(C(C)C)=[N+](CCN(C)C)[Sr-2]2([O]1)[O]C(C(C)(C)COC)=CC(C(C)C)=[N+]2CCN(C)C [Comparative Example 7] | 0.2 mol | 0.3 mol | 0.3 mol | 10.2 wt % | 337.5 °C | low thermal stability | 
CC1=[N+](CCN(C)C)[Sr-2]2([O]C(C(C)(C)C)=C1)[O]C(C(C)(C)C)=CC(C)=[N+]2CCN(C)C [Comparative Example 2] | 0.3 mol | X (the case in which the complex compound was dissolved at a concentration of less than 0.1 mol was indicated as “x”) | 0.3 mol |  |  | low thermal stability | 
COCCCC1=[N+](CCCN(C)C)[Sr-2]2([O]C(C(C)(C)C)=C1)[O]C(C(C)(C)C)=CC(CCCOC)=[N+]2CCCN(C)C [Comparative Example 5] | 0.4 mol | X (the case in which the complex compound was dissolved at a concentration of less than 0.1 mol was indicated as “x”) | 0.1 mol | 26.2 wt % | 336.8 °C |  | 
